How the values were obtained:
[1] = tested on: rat; conditions: Carcinogenicity, fischer, Oral, Feed, dose end: 78 week, group: systemic
[2] = tested on: mouse; conditions: Carcinogenicity, b6c3f1, Oral, Feed, dose end: 78 week, group: systemic
[3] = tested on: rat; conditions: Other (NonGuideline or Guideline Not Listed); wistar; Injection; Intravenous; dose end: 3 day; group: cannot be grouped; systemic / clinical chemistry / cholesterol / cholesterol + systemic / clinical chemistry / creatinine / creatinine + systemic / clinical …
[4] = tested on: mouse; conditions: Other (NonGuideline or Guideline Not Listed); cd1; Injection; Intravenous; dose end: 7 day; group: cannot be grouped; systemic / clinical chemistry / alanine aminotransferase (alt/sgpt) / alanine aminotransferase (alt/sgpt) + systemic / clinical chemistry / …
[5] = tested on: rat; conditions: Other (NonGuideline or Guideline Not Listed); sprague dawley; Injection; Intravenous; dose end: 3 day; group: cannot be grouped; systemic / clinical chemistry / chloride / chloride + systemic / clinical chemistry / creatinine / creatinine + systemic / clinical …
[6] = tested on: rat; conditions: Sub-acute repeat dose toxicity; sprague dawley; Injection; Intravenous; dose end: 13 day; group: systemic; systemic / clinical chemistry / alanine aminotransferase (alt/sgpt) / alanine aminotransferase (alt/sgpt) + systemic / clinical chemistry / …
[7] = tested on: rat; conditions: Combined chronic toxicity/carcinogenicity; sprague dawley; Oral; Feed; dose end: 24 month; group: systemic; systemic / hematology / erythrocyte (rbc) count differential / erythrocyte (rbc) + systemic / hematology / hematocrit (hct) / hematocrit (…
[8] = tested on: rat; conditions: Subchronic oral toxicity in rodents, sprague dawley, Feed, dose end: 90 day
[9] = tested on: rat; conditions: Multigenerational reproductive toxicity study, sprague dawley, Oral, Feed, dose end: 2 generation
[10] = tested on: rat; conditions: Prenatal developmental toxicity study, sprague dawley, Oral, Gavage/Intubation, dose end: 19 GD
[11] = tested on: dog; conditions: Chronic toxicity; beagle; Oral; Feed; dose end: 60 week; group: systemic; systemic / clinical chemistry / thyroid stimulating hormone (thyrotropin) (tsh) / thyroid stimulating hormone (=thyrotropin) (tsh) + …
[12] = tested on: rat; conditions: Prenatal developmental toxicity study, sprague dawley, Oral, Gavage/Intubation, dose end: 19 GD; remark: listed apart in the source
[13] = tested on: mouse; conditions: Carcinogenicity; cd1; Oral; Feed; dose end: 18 month; group: systemic; systemic / pathology microscopic / bone marrow / hematopoietic cell proliferation + systemic / pathology microscopic / liver / hematopoietic…
[14] = tested on: rabbit; conditions: Prenatal developmental toxicity study; new zealand white; Oral; Gavage/Intubation; dose end: 18 GD; group: maternal; systemic / in life observation / body weight / body weight + systemic / in life observation / body weight / body weight gain + systemic / in…
[15] = tested on: mouse; conditions: Subchronic inhalation toxicity, cd1, Whole-Body, dose end: 13 week, group: systemic
[16] = tested on: rat; conditions: Developmental neurotoxicity study; sprague dawley; Oral; Gavage/Intubation; dose end: 68 PND; group: cannot be grouped; systemic / in life observation / mortality / mortality
[17] = tested on: rat; conditions: Carcinogenicity, fischer, Inhalation, Whole-Body, dose end: 104 week, group: systemic
[18] = tested on: rat; conditions: Prenatal developmental toxicity study, Sprague-Dawley, Oral, Gavage/Intubation, dose end: 15 GD
[19] = tested on: rat; conditions: Neurotoxicity screening battery; fischer; Inhalation; Whole-Body; dose end: 1 day; group: cannot be grouped; systemic / in life observation / clinical signs / abnormal gait + systemic / in life observation / clinical signs / body temperature + …
[20] = tested on: rat; conditions: Subchronic inhalation toxicity, fischer, Whole-Body, dose end: 13 week, group: systemic
[21] = systemic / in life observation / body weight / body weight
[22] = systemic / pathology microscopic / liver / carcinoma + systemic / pathology microscopic / zymbal's gland / squamous cell carcinoma + …
[23] = systemic / in life observation / body weight / body weight + systemic / pathology microscopic / liver / carcinoma + systemic / in life …
[24] = group: cholinesterase, cholinesterase / cholinesterase / cholinesterase / plasma cholinesterase (che)
[25] = group: systemic, systemic / hematology / erythrocyte (rbc) count differential / erythrocyte (rbc) + systemic / hematology / hemoglobin (hgb) / hemoglobin (…
[26] = group: systemic, systemic / pathology microscopic / blood / focal cellular change
[27] = group: offspring, systemic / in life observation / body weight / offspring (pup) weight + systemic / organ weight / liver / absolute + systemic / organ weight…
[28] = group: parental, systemic / organ weight / spleen / absolute + systemic / organ weight / spleen / relative to body weight + systemic / pathology microscopic…
[29] = group: developmental, developmental / developmental malformation / bone / short
[30] = group: maternal, systemic / in life observation / body weight / body weight gain + systemic / in life observation / body weight / body weight + systemic / in…
[31] = group: developmental, developmental / developmental malformation / bone / bent + developmental / developmental malformation / bone / delayed ossification + …
[32] = group: maternal, systemic / in life observation / clinical signs / [other] + systemic / pathology gross / spleen / discolored + systemic / pathology gross / …
[33] = systemic / in life observation / body weight / body weight + systemic / in life observation / body weight / body weight gain + systemic / in…
[34] = systemic / pathology microscopic / testes / adenoma
[35] = group: developmental, systemic / in life observation / body weight / fetal weight
[36] = group: maternal, systemic / in life observation / body weight / body weight gain + systemic / in life observation / mortality / mortality + systemic / organ …
[37] = systemic / in life observation / clinical signs / reduced activity
[38] = systemic / in life observation / clinical signs / reduced activity + systemic / hematology / erythrocyte (rbc) count differential / …

c1ccc(NNc2ccccc2)cc1 [1,2-Diphenylhydrazine]
LEL [1, 21]: 2 mg/kg/day | NEL [1, 21]: < 2 mg/kg/day | LOAEL [1, 22]: > 4 mg/kg/day | NOAEL [1, 22]: ≥ 4 mg/kg/day | LOAEL [2, 21]: 60 mg/kg/day | LEL [2, 23]: 60 mg/kg/day | NEL [2, 23]: 6 mg/kg/day | NOAEL [2, 23]: 6 mg/kg/day

C[C@@H](O)[C@H]1C(=O)N2C(C(=O)[O-])=C(CN3c4cccc5c(CC[N+]67CC[N+](CC(N)=O)(CC6)CC7)ccc(c45)S3(=O)=O)[C@H](C)[C@H]12.[Cl-]
LEL [3]: 150 mg/kg/day | LOAEL [3]: > 225 mg/kg/day | NEL [3]: 75 mg/kg/day | NOAEL [3]: ≥ 225 mg/kg/day | LEL [4]: 400 mg/kg/day | LOAEL [4]: > 800 mg/kg/day | NEL [4]: 200 mg/kg/day | NOAEL [4]: ≥ 800 mg/kg/day | LEL [5]: 150 mg/kg/day | LOAEL [5]: > 150 mg/kg/day | NEL [5]: < 150 mg/kg/day | NOAEL [5]: ≥ 150 mg/kg/day | LEL [6]: 150 mg/kg/day | LOAEL [6]: > 225 mg/kg/day | NEL [6]: 75 mg/kg/day | NOAEL [6]: ≥ 225 mg/kg/day

CC(C)OC(=O)Nc1cccc(Cl)c1 [Chlorpropham]
LEL [7]: 100 mg/kg/day | LOAEL [7]: 100 mg/kg/day | NEL [7]: 30 mg/kg/day | NOAEL [7]: 30 mg/kg/day | LEL [8, 24]: 1140 mg/kg/day | LOAEL [8, 24]: > 1140 mg/kg/day | NEL [8, 24]: 279 mg/kg/day | NOAEL [8, 24]: ≥ 1140 mg/kg/day | LOAEL [8, 25]: 276 mg/kg/day | NOAEL [8, 25]: 64.8 mg/kg/day | LEL [8, 26]: 15.9 mg/kg/day | NEL [8, 26]: < 15.9 mg/kg/day | LEL [9, 27]: 150 mg/kg/day | LOAEL [9, 27]: 150 mg/kg/day | NEL [9, 27]: 50 mg/kg/day | NOAEL [9, 27]: 50 mg/kg/day | LEL [9, 28]: 150 mg/kg/day | LOAEL [9, 28]: 150 mg/kg/day | NEL [9, 28]: 50 mg/kg/day | NOAEL [9, 28]: 50 mg/kg/day | LEL [10, 29]: 1000 mg/kg/day | LOAEL [10, 29]: 1000 mg/kg/day | NEL [10, 29]: 350 mg/kg/day | NOAEL [10, 29]: 350 mg/kg/day | LOAEL ([10]; group: maternal, systemic / in life observation / body weight / body weight gain): 350 mg/kg/day | NEL [10, 30]: 100 mg/kg/day | NOAEL [10, 30]: 100 mg/kg/day | LEL ([10]; group: maternal, systemic / in life observation / body weight / body weight gain + systemic / in life observation / clinical signs / red or crusty deposits …): 350 mg/kg/day | LEL [11]: 5 mg/kg/day | LOAEL [11]: 50 mg/kg/day | NEL [11]: < 5 mg/kg/day | NOAEL [11]: 5 mg/kg/day | LEL [12, 31]: 2000 mg/kg/day | LOAEL [12, 31]: 2000 mg/kg/day | NEL [12, 31]: 400 mg/kg/day | NOAEL [12, 31]: 400 mg/kg/day | LEL [12, 32]: 400 mg/kg/day | LOAEL [12, 32]: 400 mg/kg/day | NEL [12, 32]: 40 mg/kg/day | NOAEL [12, 32]: 40 mg/kg/day | LEL [13]: 519 mg/kg/day | LOAEL [13]: 519 mg/kg/day | NEL [13]: 108 mg/kg/day | NOAEL [13]: 108 mg/kg/day

CC(C)O [Isopropanol]
LEL [14]: 480 mg/kg/day | LOAEL [14]: > 480 mg/kg/day | NEL [14]: 240 mg/kg/day | NOAEL [14]: ≥ 480 mg/kg/day | LOAEL [15, 33]: > 5000 ppm | NEL [15, 33]: 500 ppm | NOAEL [15, 33]: ≥ 5000 ppm | LEL ([15]; systemic / in life observation / clinical signs / ataxia + systemic / in life observation / clinical signs / lethargy + systemic / in life …): 1500 ppm | LEL [16]: 1200 mg/kg/day | LOAEL [16]: 1200 mg/kg/day | NEL [16]: 700 mg/kg/day | NOAEL [16]: 700 mg/kg/day | LOAEL [17, 33]: 2500 ppm | NOAEL [17, 33]: 500 ppm | LEL [17, 34]: 500 ppm | NEL [17, 34]: < 500 ppm | LEL [18, 35]: 800 mg/kg/day | LOAEL [18, 35]: > 1200 mg/kg/day | NEL [18, 35]: 400 mg/kg/day | NOAEL [18, 35]: ≥ 1200 mg/kg/day | LOAEL [18, 36]: > 1200 mg/kg/day | NEL [18, 36]: 400 mg/kg/day | NOAEL [18, 36]: ≥ 1200 mg/kg/day | LEL ([18]; group: maternal, systemic / in life observation / mortality / mortality): 800 mg/kg/day | LEL [19]: 5000 ppm | LOAEL [19]: > 10000 ppm | NEL [19]: 1500 ppm | NOAEL [19]: ≥ 10000 ppm | LEL [20, 37]: 500 ppm | NEL [20, 37]: < 500 ppm | LOAEL [20, 38]: > 5000 ppm | NOAEL [20, 38]: ≥ 5000 ppm
